Tested on: 435261-313-R-J1-PDC tumor spheroid viability
Experiment: Anticancer human tumor 435261-313-R-J1-PDC patient-derived colon adenocarcinoma cell line growth inhibition [PI3K]
Conditions: spheroids with HUVEC and MSC; for IC50: curve of first compound; for viability, T/C: stronger effect = lower value
Outline: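 Stroma-containing spheroids: tumor line, pooled-donor HUVEC, hMSC. Treatments: targeted agents with PI3K inhibitors. Dosing: clinically relevant, half-log spacing, 10 microM ceiling without known Cmax. Read-out: cell viability.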

[1] = second compound 0.0316 µM, first compound 0.0316 µM
[2] = second compound 0.0316 µM, first compound 0.1 µM
[3] = second compound 0.0316 µM, first compound 0.316 µM
[4] = second compound 0.0316 µM, first compound 1 µM
[5] = second compound 0.0316 µM, first compound 3.16 µM
[6] = second compound 0.0316 µM, first compound 10 µM
[7] = second compound 0.1 µM, first compound 0.0316 µM
[8] = second compound 0.1 µM, first compound 0.1 µM
[9] = second compound 0.1 µM, first compound 0.316 µM
[10] = second compound 0.1 µM, first compound 1 µM
[11] = second compound 0.1 µM, first compound 3.16 µM
[12] = second compound 0.1 µM, first compound 10 µM
[13] = second compound 0.316 µM, first compound 0.0316 µM
[14] = second compound 0.316 µM, first compound 0.1 µM
[15] = second compound 0.316 µM, first compound 0.316 µM
[16] = second compound 0.316 µM, first compound 1 µM
[17] = second compound 0.316 µM, first compound 3.16 µM
[18] = second compound 0.316 µM, first compound 10 µM
[19] = second compound 1 µM, first compound 0.0316 µM
[20] = second compound 1 µM, first compound 0.1 µM
[21] = second compound 1 µM, first compound 0.316 µM
[22] = second compound 1 µM, first compound 1 µM
[23] = second compound 1 µM, first compound 3.16 µM
[24] = second compound 1 µM, first compound 10 µM
[25] = second compound 3.16 µM, first compound 0.0316 µM
[26] = second compound 3.16 µM, first compound 0.1 µM
[27] = second compound 3.16 µM, first compound 0.316 µM
[28] = second compound 3.16 µM, first compound 1 µM
[29] = second compound 3.16 µM, first compound 3.16 µM
[30] = second compound 3.16 µM, first compound 10 µM
[31] = second compound 10 µM, first compound 0.0316 µM
[32] = second compound 10 µM, first compound 0.1 µM
[33] = second compound 10 µM, first compound 0.316 µM
[34] = second compound 10 µM, first compound 1 µM
[35] = second compound 10 µM, first compound 3.16 µM
[36] = second compound 10 µM, first compound 10 µM
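Note: spheroids exposed to compounds for 7 days.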

With `C#Cc1c(F)ccc2cc(O)cc(-c3ncc4c(N5CC6CCC(C5)N6)nc(OCC56CCCN5CC(F)C6)nc4c3F)c12` (stereo unspecified) + CC(Nc1ncnc2nc[nH]c12)c1cc2cccc(Cl)c2c(=O)n1-c1ccccc1 the IC50 (second compound 0.0316 µM) was 6.85 µM, the IC50 (second compound 0.1 µM) was > 10 µM and the IC50 (second compound 0.316 µM) was 7.21 µM. The IC50 (second compound 1 µM) was 5.49 µM, the IC50 (second compound 3.16 µM) was 4.51 µM and the IC50 (second compound 10 µM) was 0.319 µM. For the same compound, the viability, T/C [1] was 78.7%, the viability, T/C [2] was 100% and the viability, T/C [3] was 98.3%. For the same compound, the viability, T/C [4] was 89.3%, the viability, T/C [5] was 81.9% and the viability, T/C [6] was 34.5%. For the same compound, the viability, T/C [7] was 97.8%, the viability, T/C [8] was 109% and the viability, T/C [9] was 72.2%. The viability, T/C [10] was 82%, the viability, T/C [11] was 68.2% and the viability, T/C [12] was 56%. It also gave a viability, T/C [13] of 89%, a viability, T/C [14] of 85.3% and a viability, T/C [15] of 79.8%. It also gave a viability, T/C [16] of 105%, a viability, T/C [17] of 103% and a viability, T/C [18] of 33.2%. The viability, T/C [19] was 94.9%, the viability, T/C [20] was 70.4% and the viability, T/C [21] was 82.3%. For the same compound, the viability, T/C [22] was 103%, the viability, T/C [23] was 67% and the viability, T/C [24] was 31.4%. For the same compound, the viability, T/C [25] was 62%, the viability, T/C [26] was 66.2% and the viability, T/C [27] was 43.3%. The viability, T/C [28] was 90.6%, the viability, T/C [29] was 50.1% and the viability, T/C [30] was 32.7%. For the same compound, the viability, T/C [31] was 56.5%, the viability, T/C [32] was 46.9% and the viability, T/C [33] was 52.3%. The viability, T/C [34] was 34.9%, the viability, T/C [35] was 18.8% and the viability, T/C [36] was 13.7%.
`C=CC(=O)N1CCN(c2nc(=O)n(-c3c(C)ccnc3C(C)C)c3nc(-c4c(O)cccc4F)c(F)cc23)C(C)C1` (stereo unspecified) + CC(Nc1ncnc2nc[nH]c12)c1cc2cccc(Cl)c2c(=O)n1-c1ccccc1 was tested, and the IC50 (second compound 0.0316 µM) was > 10 µM, the IC50 (second compound 0.1 µM) was > 10 µM and the IC50 (second compound 0.316 µM) was > 10 µM. For the same compound, the IC50 (second compound 1 µM) was > 10 µM, the IC50 (second compound 3.16 µM) was > 10 µM and the IC50 (second compound 10 µM) was > 10 µM. The viability, T/C [1] was 67.3%, the viability, T/C [2] was 84.8% and the viability, T/C [3] was 103%. It also gave a viability, T/C [4] of 117%, a viability, T/C [5] of 116% and a viability, T/C [6] of 103%. The viability, T/C [7] was 78.4%, the viability, T/C [8] was 79.9% and the viability, T/C [9] was 103%. It also gave a viability, T/C [10] of 84.3%, a viability, T/C [11] of 109% and a viability, T/C [12] of 103%. It also gave a viability, T/C [13] of 92%, a viability, T/C [14] of 95% and a viability, T/C [15] of 85.4%. It also gave a viability, T/C [16] of 94.1%, a viability, T/C [17] of 122% and a viability, T/C [18] of 108%. For the same compound, the viability, T/C [19] was 76.3%, the viability, T/C [20] was 77% and the viability, T/C [21] was 102%. For the same compound, the viability, T/C [22] was 91.9%, the viability, T/C [23] was 130% and the viability, T/C [24] was 109%. The viability, T/C [25] was 53.7%, the viability, T/C [26] was 68.8% and the viability, T/C [27] was 89.2%. It also gave a viability, T/C [28] of 106%, a viability, T/C [29] of 87.9% and a viability, T/C [30] of 79.5%. For the same compound, the viability, T/C [31] was 49.3%, the viability, T/C [32] was 49.6% and the viability, T/C [33] was 54.6%. The viability, T/C [34] was 55.1%, the viability, T/C [35] was 74.9% and the viability, T/C [36] was 66.4%.
In the case of `CC(Cn1ccc(-c2ccc(C#N)c(Cl)c2)n1)NC(=O)c1cc(C(C)O)[nH]n1` (stereo unspecified) + CC(Nc1ncnc2nc[nH]c12)c1cc2cccc(Cl)c2c(=O)n1-c1ccccc1, the IC50 (second compound 0.0316 µM) is reported as > 10 µM, the IC50 (second compound 0.1 µM) is reported as > 10 µM and the IC50 (second compound 0.316 µM) is reported as > 10 µM. For the same compound, the IC50 (second compound 1 µM) was > 10 µM, the IC50 (second compound 3.16 µM) was > 10 µM and the IC50 (second compound 10 µM) was > 10 µM. The viability, T/C [1] was 101%, the viability, T/C [2] was 96.2% and the viability, T/C [3] was 107%. The viability, T/C [4] was 75.8%, the viability, T/C [5] was 101% and the viability, T/C [6] was 100%. It also gave a viability, T/C [7] of 105%, a viability, T/C [8] of 95.9% and a viability, T/C [9] of 90.9%. For the same compound, the viability, T/C [10] was 103%, the viability, T/C [11] was 115% and the viability, T/C [12] was 76.1%. The viability, T/C [13] was 82.7%, the viability, T/C [14] was 90.4% and the viability, T/C [15] was 90.5%. For the same compound, the viability, T/C [16] was 80.5%, the viability, T/C [17] was 103% and the viability, T/C [18] was 81.6%. The viability, T/C [19] was 81.1%, the viability, T/C [20] was 99.1% and the viability, T/C [21] was 70.9%. The viability, T/C [22] was 85.9%, the viability, T/C [23] was 73.5% and the viability, T/C [24] was 76.6%. For the same compound, the viability, T/C [25] was 77.8%, the viability, T/C [26] was 58.4% and the viability, T/C [27] was 77.2%. The viability, T/C [28] was 85.5%, the viability, T/C [29] was 65.1% and the viability, T/C [30] was 62.1%. It also gave a viability, T/C [31] of 58.5%, a viability, T/C [32] of 41.7% and a viability, T/C [33] of 48.5%. The viability, T/C [34] was 74.7%, the viability, T/C [35] was 72.4% and the viability, T/C [36] was 42%.
